Publication PMC9867241, “Antioxidant and Cytotoxic Activity of New Polyphenolic Derivatives of Quinazolin-4(3H)-one: Synthesis and In Vitro Activities Evaluation” (Pharmaceutics, 2022)

Legend:
[1] = Fe^2+ chelation assay (ferrozine competition)
Protocol: In the protocol used for evaluating the Fe^2+ chelating ability of the compounds, the absorbances of the solutions were determined at λ = 562 nm, against a blank sample. The method was adapted from the initial report of Benzie and Strain et al., which was previously reported by our group. Using Equation (5), we calculated the iron chelation capacities of the 5a–d and 6a–d compounds:(5) iron chelation (%)=control absorbance−sample absorbance/control absorbance×100
The chelating capacity of the tested compounds of Fe^2+ was evaluated based on their competition for Fe^2+ with ferrozine.

[2] = Ferric reducing antioxidant potential (FRAP) assay; set-up: concentration or dose not given beside the values; conditions: for FRAP, % of Activity of Trolox: relative to Trolox; for FRAP, % of Activity of Ascorbic Acid: relative to ascorbic acid
Protocol: In the ferric reducing antioxidant potential (FRAP) assay, in comparison with a blank sample prepared from DMSO mixed with FRAP reagent, the absorbance of the solutions was measured at λ = 593 nm. The compounds were tested according to a modified method proposed initially by Benzie and Strain [31]. Using Equation (4), we calculated the reducing antioxidant potential of 5a–d and 6a–d as a percentage of the activity of the reference compounds:(4) % of control activity=sample absorbance/reference absorbance×100
Ferrous ions resulting from the reduction of ferric ions in the presence of an antioxidant compound form a blue-colored complex (Fe^2+-TPTZ) at pH = 3.6 with tripyridyltriazine (2,4,6-tris(2-pyridyl)-s-triazine). The intensity of the blue complex formed is proportional to the number of ferrous ions. Compounds 5a, 5c and 5d expressed a good electron donation capacity.

[3] = tested on: normal human foreskin fibroblasts (BJ); experiment: Cytotoxicity, Alamar blue assay, BJ cells; format: cell-based; conditions: Homo sapiens, Fibroblast; 24 h exposure, Alamar blue
From the text: Normal human foreskin (BJ) fibroblasts and two types of cancer cells, namely A549 (lung adenocarcinoma) and LNCaP (prostate carcinoma) purchased from American Type Culture Collection (Manassas, VA, USA), were used in the experiments. Each cell line was maintained in a different culture medium, depending on the metabolic necessities of the cells. BJ cells were maintained in Dulbecco’s modified Eagle’s medium (DMEM) with low glucose. A549 cells were maintained in DMEM with high glucose […], while LNCaP cells were grown in Roswell Park Memorial Institute (RPMI) 1640 medium with high glucose (5 g/L). All media used were supplemented with 10% fetal bovine serum (FBS) and were refreshed every two days. Cells were used in experiments or subcultured when they reached 70–80% confluence.
In 100 µL in 96-well plates, a number of 30,000 LNCaP cells, 15,000 A549 cells, and 7500 normal (BJ) cells were seeded. Because the cells have different sizes and volumes, the purpose of the different seedings was to achieve a confluency of 70–80% after 24 h. All types of cells were further exposed to the synthesized compounds (5a–d and 6a–d) for 24 h, at a concentration ranging from 12.5 to 100 µg/mL. Post-exposure, the media were removed, and the cells were washed with phosphate buffer saline (PBS). Their viability was evaluated using Alamar blue (AB) assay as previously described. Briefly, the cells were incubated with a 200 µM resazurin solution for 4 h. Using a Synergy 2 multi-mode microplate reader, we measured the fluorescence. The measurement was performed at λexcitation = 530/25 nm; λemission = 590/35 nm. We conducted the experiments using three biological replicates, each one including 6 technical replicates. As negative controls (NC), cells exposed to culture medium containing 0.2% DMSO were used. Compared to the NC (100%), the results were expressed as relative values. We used IC50 values for the potency evaluation, and calculated them for each cell line, using the dose-effect curves obtained by fitting the experimental data with a 4-parameter logistic curve.
Mean values ± standard deviation (SD) values of at least three biological replicates were used to calculate experimental data. One-way analysis of variance (ANOVA) with a post hoc Holm–Sidak test was used to statistically examine the data. Using SigmaPlot 11.0 software (Systat, Software Inc., Chicago, IL, USA), we performed the graphical display and data analysis. From a statistical point of view, the results were considered different, at values of p < 0.05.

[4] = Cu^2+ chelation assay (murexide competition)
From the text: With murexide as a chromophoric chelator, we performed the protocol followed for the evaluation of Cu^2+ chelating activities of the compounds using an adaptation of the method presented by Cesari et al. and Wu et al.. Using Equation (6), we calculated the copper chelation capacities of the 5a–d and 6a–d compounds:(6) copper chelation (%)=(A485/A520)control−(A485/A520)sample/(A485/A520)control×100
The evaluation of the Cu^2+ chelation activity of compounds was made based on the competition for Cu^2+ with murexide. The chelating activity of compounds for the cupric ions found in the current assay is significant for the pyrogallol derivatives, being quite close to EDTA-Na2.

[5] = Reducing power (RP) assay; set-up: concentration or dose not given beside the values; conditions: for RP, % of Activity of Trolox: relative to Trolox; for RP, % of Activity of Ascorbic Acid: relative to ascorbic acid
Protocol: Herein, the iron (III) is not free in the solution as it was in the FRAP assay and is complexed by cyanide ions. The evaluation of the reducing power (RP) was performed at a pH closer to neutral (pH = 6.6); this is different from the FRAP test, which is performed in an acidic environment. Against a blank sample, the absorbances were measured at λ = 700 nm. The followed protocol was based on the adaptation of previously reported protocols and was previously reported by our group. Using Equation (4), we calculated the reducing power of the 5a–d and 6a–d compounds as a percentage of the reference compounds activity.
The evaluated compounds can reduce ferricyanide to ferrocyanide, in the presence of ferric ions, resulting in the Perl’s Prussian which gives blue. The higher the percentage of reducing power, the higher was the absorbance that was measured due to a higher amount of colored complex resulting from the reaction.

Structure (SMILES) | Ferrous ions Chelation Capacity (%) ([1]; 17.70 µg/mL) | Ferrous ions Chelation Capacity (%) ([1]; 20.59 µg/mL) | Ferrous ions Chelation Capacity (%) ([1]; 29.41 µg/mL) | Ferrous ions Chelation Capacity (%) ([1]; 44.11 µg/mL) | Ferrous ions Chelation Capacity (%) ([1]; 58.82 µg/mL) | Ferrous ions Chelation Capacity (%) ([1]; 88.23 µg/mL) | Ferrous ions Chelation Capacity (%) ([1]; 117.64 µg/mL) | Ferrous ions Chelation Capacity (%) ([1]; 257.46 µg/mL) | Ferrous ions Chelation Capacity (%) ([1]; 343.28 µg/mL) | FRAP, % of Activity of Trolox [2] | FRAP, % of Activity of Ascorbic Acid [2] | IC50 [3] | Cupric ions Chelation Capacity (%) ([4]; 3.36 µg/mL) | Cupric ions Chelation Capacity (%) ([4]; 8.40 µg/mL) | Cupric ions Chelation Capacity (%) ([4]; 16.80 µg/mL) | RP, % of Activity of Trolox [5] | RP, % of Activity of Ascorbic Acid [5]
CCCCn1c(SCC(=O)NN=C(C)c2ccc(O)cc2O)nc2ccccc2c1=O [Compound 6d, 2-((3-butyl-4-oxo-3,4-dihydroquinazolin-2-yl)thio)-N’-(1-(2,4-dihydroxyphenyl)ethylidene)acetohydrazide] | - (- represents less than 5%) | - (- represents less than 5%) | - (- represents less than 5%) | - (- represents less than 5%) | - (- represents less than 5%) | - (- represents less than 5%) | - (- represents less than 5%) | - (- represents less than 5%) | - (- represents less than 5%) | 27.95% | 24.36% | > 100 µg/mL | 5.98% | 11.84% | 20.42% | 24.53% | 16.84%
CCCCn1c(SCC(=O)NN=Cc2ccc(O)c(O)c2O)nc2ccccc2c1=O [Compound 5d, 2-((3-Butyl-4-oxo-3,4-dihydroquinazolin-2-yl)thio)-N’-(2,3,4-trihydroxybenzylidene)acetohydrazide] | - (- represents less than 5%) | - (- represents less than 5%) | - (- represents less than 5%) | - (- represents less than 5%) | - (- represents less than 5%) | - (- represents less than 5%) | 58.18% | 71.56% | 80.50% | 92.71% | 80.80% | > 100 µg/mL | 14.19% | 28.04% | 41.42% | 72.18% | 49.54%
C=CCn1c(SCC(=O)NN=C(C)c2ccc(O)cc2O)nc2ccccc2c1=O [Compound 6a, 2-((3-Allyl-4-oxo-3,4-dihydroquinazolin-2-yl)thio)-N’-(1-(2,4-dihydroxyphenyl)ethylidene)acetohydrazide] | - (- represents less than 5%) | - (- represents less than 5%) | - (- represents less than 5%) | - (- represents less than 5%) | - (- represents less than 5%) | - (- represents less than 5%) | - (- represents less than 5%) | - (- represents less than 5%) | - (- represents less than 5%) | 26.17% | 22.81% | > 100 µg/mL | 10.96% | 20.64% | 31.79% | 30.73% | 21.09%
CCn1c(SCC(=O)NN=C(C)c2ccc(O)cc2O)nc2ccccc2c1=O [Compound 6c, N’-(1-(2,4-dihydroxyphenyl)ethylidene)-2-((3-ethyl-4-oxo-3,4-dihydroquinazolin-2-yl)thio)acetohydrazide] | - (- represents less than 5%) | - (- represents less than 5%) | - (- represents less than 5%) | - (- represents less than 5%) | - (- represents less than 5%) | - (- represents less than 5%) | - (- represents less than 5%) | - (- represents less than 5%) | - (- represents less than 5%) | 29.65% | 25.85% | > 100 µg/mL | 7.47% | 16.75% | 26.72% | 28.98% | 19.89%
